Test system: subjects with Acute Migraines
Test: Study 302 (BHV3000-302, NCT03237845): Phase 3 double-blind placebo-controlled trial, rimegepant 75 mg tablet, acute treatment of migraine
Type: in vivo, human
Settings: for Percent (%) difference of Patients Pain Free: Rimegepant versus Placebo: no rescue meds, Kaplan-Meier estimates; for Freedom from MBS at 2 hours / Pain Freedom (pain-free) at 2 hours: N = 537
Experimental: Clinical Trial—BHV3000-302: Phase 3: Double-Blind, Randomized, Placebo-Controlled, Safety and Efficacy Trial of BHV-3000 (Rimegepant) for the Acute Treatment of Migraine (ClinicalTrials.gov Identifier: NCT03237845) A phase 3 clinical study was conducted with 1503 participants, as follows. The purpose of this study is to compare the efficacy of BHV-3000 (rimegepant) versus placebo in subjects with Acute Migraines Study Design • Study Type: Interventional (Clinical Trial) • Actual Enrollment: 1503 participants • Allocation: Randomized • Intervention Model: Parallel Assignment • Intervention Model Description: Double-blind to Sponsor, Investigator and Subject • Masking: Triple (Participant, Care Provider, Investigator) • Masking Description: Double-blind to Sponsor, Investigator and Subject • Primary Purpose: Treatment • Official Title: BHV3000-302: Phase 3: Double-Blind, Randomized, Placebo-Controlled, Safety and Efficacy Trial of BHV-3000 (Rimegepant) for the Acute Treatment of Migraine • Actual Study Start Date: Jul. 26, 2017 • Primary Completion Date: Jan. 25, 2018 • Study Completion Date: Jan. 31, 2018 Arms and Interventions Outcome Measures Primary Outcome Measures: • 1. Pain Freedom of rimegepant (75 mg tablet) compared with placebo in the acute treatment of migraine will be measured using the number of evaluable subjects that report no pain at 2 hours post-dose. [Time Frame: Two hours post dose] • Pain will be measured on a 4 point Likert scale (0=none, 1=mild, 2=moderate, 3=severe) • 2. Freedom from the most bothersome symptom (MBS) of rimegepant (75 mg tablet) compared with placebo will be measured using the number of evaluable subjects that report the absence of their MBS at 2 hours post-dose. [Time Frame: Two hours post dose] • The MBS (nausea, phonophobia or photophobia) will measured using a binary scale (0=absent, 1=present). Secondary Outcome Measures: • 1. […] [Time Frame: 2 hours-24 hours post-dose] • Sustained Pain Freedom as measured by a 4 point numeric rating scale (None, Mild, Moderate, Severe) • 2. Rimegepant (75 mg tablet) compared to placebo by tabulating the number of subjects that report the absence of photophobia at 2 hours post-dose in the subset of subjects that reported the presence of photophobia at headache baseline. [Time Frame: 2 hours post-dose] • Freedom from Photophobia • 3. Rimegepant (75 mg tablet) compared to placebo by tabulating the number of subjects that report the absence of phonophobia at 2 hours post-dose in the subset of subjects that reported the presence of phonophobia at headache baseline. [Time Frame: 2 hours post-dose] • Freedom from Phonophobia • 4. To measure rimegepant (75 mg tablet) compared to placebo on Pain Relief, at 2 hours post-dose, that report a pain level of moderate or severe at baseline and then report a pain level of none or mild. [Time Frame: 2 hours post-dose] • Pain Relief as measured by a 4 point numeric rating scale (None, Mild, Moderate, Severe) • 5. Freedom from Nausea will by tabulating the number of subjects that report the absence of nausea at 2 hours post-dose in the subset of subjects that reported the presence of nausea at headache baseline. [Time Frame: 2 hours post-dose] • Freedom from Nausea • 6. To measure rimegepant (75 mg tablet) compared to placebo on the probability of requiring rescue medication will be assessed using the number of subjects that take rescue medication within […] administration of study medication (BHV3000 or placebo). [Time Frame: up to 24 hours post-dose] • Requiring Rescue Medication • 7. […] [Time Frame: 2 hours-48 hours post-dose] • Sustained Pain Freedom as measured by a 4 point numeric rating scale (None, Mild, Moderate, Severe) • 8. […] [Time Frame: 2 hours-24 hours post-dose] • Sustained Pain Relief as measured by a 4 point numeric rating scale (None, Mild, Moderate, Severe) • 9. […] [Time Frame: 2 hours-48 hours post-dose] • Sustained Pain Relief as measured by a 4 point numeric rating scale (None, Mild, Moderate, Severe) • 10. […]

[1] = Study 302, single 75 mg tablet, listed as rimegepant

For `N[C@@H]1c2cccnc2[C@H](OC(=O)N2CCC(n3c(=O)[nH]c4ncccc43)CC2)CC[C@H]1c1cccc(F)c1F` [Rimegepant, [(5S,6S,9R)-5-amino-6-(2,3-difluorophenyl)-6,7,8,9-tetrahydro-5H-cyclohepta[b]pyridin-9-yl] 4-(2-oxo-3H-imidazo[4,5-b]pyridin-1-yl)piperidine-1-carboxylate], the “SAEs related to the study drug” value (Study 302) was “No SAEs”, the “bilirubin elevations greater than 2 times ULN” value (Study 302) was “no bilirubin elevations” and the “transaminase level greater than 3 times ULN” value (Study 302) was “No subject”. For the same compound, the “AE urinary tract infection” value (Study 302, 8/543) was 1.5%, the AE nausea (Study 302, 10/543) was 1.8% and the “Serum ALT or AST levels greater than ULN” value (Study 302, 13/543) was 2.4%. The “Percent (%) difference of Patients Pain Free: Rimegepant versus Placebo” value (Study 302, 2 hours post single dose 75 mg) was 7%, the “Percent (%) difference of Patients Pain Free: Rimegepant versus Placebo” value (Study 302, 3 hours post single dose 75 mg) was 13% and the “Percent (%) difference of Patients Pain Free: Rimegepant versus Placebo” value (Study 302, 4 hours post single dose 75 mg) was 19%. For the same compound, the “Percent (%) difference of Patients Pain Free: Rimegepant versus Placebo” value (Study 302, 6 hours post single dose 75 mg) was 22%, the “Percent (%) difference of Patients Pain Free: Rimegepant versus Placebo” value (Study 302, 8 hours post single dose 75 mg) was 19% and the “functional disability: patients achieving normal function at 2 hours versus placebo” value (Study 302, P<0.0001) was “greater proportion”. The “Serious AEs (SAEs), subjects” value (Study 302, back pain) was 1 subject, the “Free from MBS at 2 hours, subjects [n/N]” value (Study 302, single 75 mg tablet) was “[202/537]” and the “Nausea-free at 2 hours” value (Study 302, single 75 mg tablet) was 48.1%. The “Nausea-free at 2 hours, subjects [n/N]” value (Study 302, single 75 mg tablet) was “[171/355]”, the “Pain relief at 2 hours” value (Study 302, single 75 mg tablet) was 58.1% and the “Pain relief at 2 hours, subjects [n/N]” value (Study 302, single 75 mg tablet) was “[312/537]”. For the same compound, the “Pain-free at 2 hours, subjects [n/N]” value (Study 302, single 75 mg tablet) was “[105/537]”, the “Phonophobia-free at 2 hours” value (Study 302, single 75 mg tablet) was 36.7% and the “Phonophobia-free at 2 hours, subjects [n/N]” value (Study 302, single 75 mg tablet) was “[133/362]”. The “Photophobia-free at 2 hours” value (Study 302, single 75 mg tablet) was 37.4%, the “Photophobia-free at 2 hours, subjects [n/N]” value (Study 302, single 75 mg tablet) was “[183/489]” and the “Sustained pain relief, 2-24 hours” value (Study 302, single 75 mg tablet) was 42.6%. For the same compound, the “Sustained pain relief, 2-24 hours, subjects [n/N]” value (Study 302, single 75 mg tablet) was “[229/537]”, the “Freedom from MBS at 2 hours” value (Study 302, single 75 mg tablet) was 37.6% and the “Pain Freedom (pain-free) at 2 hours” value (Study 302, single 75 mg tablet) was 19.6%. The “Freedom from MBS at 2 hours” value [1] was 37.6%, the “Pain Freedom (pain-free) at 2 hours” value [1] was 19.6% and the “Pain relief at 2 hours” value [1] was 58.1%. The “sustained pain relief from 2 through 48 hours postdose versus placebo” value (Study 302, single dose, no rescue medication, P<0.0001) was “superiority versus placebo” and the “sustained pain freedom from 2 through 48 hours postdose versus placebo” value (Study 302, single dose, no rescue medication, P=0.0181) was “superiority versus placebo”.
